Tested on: TEAD-dependent transcription (12XGTIIC TEAD response element luciferase reporter) in MSTO-211H cells
Assay: TEAD-dependent transcription cell-based luciferase reporter assay in MSTO-211H+12XGTIIC cells
Conditions: Homo sapiens; MSTO-211H+12XGTIIC reporter cells, 24 hours compound incubation, luminescence normalized to cell viability signal, geometric mean; read-out: MSTO-211H GMean IC50 (uM) Cell Assay Reporter Cell Variant: TEAD
Summary of the method: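 Stable 12×GTIIC-luciferase clone seeded 1×10^4 cells/well overnight, then exposed to compound serial dilutions for 24 h at 37° C. ONE-Glo luminescence normalized to CellTiter-Fluor viability signal; % inhibition relative to DMSO and 20 μM K-975 controls. IC50 by nonlinear regression.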

O=C(NC1CC1)N1CCC(C(=O)N2CCc3c(cccc3Nc3ccc(C(F)(F)F)nc3)C2)C1 (stereo not drawn) [Compound O-0096, N-cyclopropyl-3-(5-((6-(trifluoromethyl)pyridin-3-yl)amino)-1,2,3,4-tetrahydroisoquinoline-2-carbonyl)pyrrolidine-1-carboxamide]
IC50: 0.001 to 10 µM

CS(=O)(=O)c1cc(C(=O)N2CCc3c(cccc3Nc3ccc(C(F)(F)F)cc3)C2)ccn1 [Compound O-0201, (2-(methylsulfonyl)pyridin-4-yl)(5-((4-(trifluoromethyl)phenyl)amino)-3,4-dihydroisoquinolin-2(1H)-yl)methanone]
IC50: 0.001 to 10 µM

O=C(Cc1cncs1)N1CCc2c(cccc2Nc2ccc(C(F)(F)F)cc2)C1 [Compound O-0003, 2-(thiazol-5-yl)-1-(5-((4-(trifluoromethyl)phenyl)amino)-3,4-dihydroisoquinolin-2(1H)-yl)ethan-1-one]
IC50: 0.001 to 10 µM

Reference: US20250368614A1, “COMPOUNDS AND METHODS FOR YAP/TEAD MODULATION AND INDICATIONS THEREFOR” (OPNA BIO SA, priority 2023, published 2025)
